The data set is described as follows: logP determination by HPLC (EEC Directive 79/831 Annex V. A8). The data set is classed as physicochemical. Here is the method: logP value is determined in accordance with EEC Directive 79/831 Annex V. A8 by HPLC (gradient method, acetonitrile/0.1% aqueous phosphoric acid)
Where [1] appears, read: HPLC, gradient method, acetonitrile/0.1% aqueous phosphoric acid, read-out: logP.

Where two headings read alike, the source gives them in different places.

In the case of `CC1CCN(c2c(-c3ccc(F)cc3Cl)c(Cl)nc3c(CO)cnn23)CC1` [Example 1, 3-hydroxymethyl-5-chloro-6-(2-chloro-4-fluorophenyl)-7-(4-methylpiperidino)pyrazolo[1,5-a]pyrimidine], the chromatographic logP under setting [1] turned out to be 3.89.
The same measure, in the same setting: under `COCc1cnn2c(N3CCC(C)CC3)c(-c3ccc(F)cc3Cl)c(Cl)nc12` [Example 2, 3-methoxymethyl-5-chloro-6-(2-chloro-4-fluorophenyl)-7-(4-methylpiperidno)pyrazolo[1,5-a]pyrimidine] stands 5.09; under `CCC1COC(c2cnn3c(NC(C)C(C)(C)C)c(-c4ccc(F)cc4Cl)c(Cl)nc23)O1` (stereo not drawn) [Example 23], 5.7.
Consider `CC1CCN(c2c(-c3ccc(F)cc3Cl)c(Cl)nc3c(C=O)cnn23)CC1` [Example 541, 3-formyl-5-chloro-6-(2-chloro-4-fluorophenyl)-7-(4-methylpiperidino)pyrazolo[1,5-a]pyrimidine], for which, where the note is “HPLC, gradient of acetonitrile/0.1% aqueous phosphoric acid, pH=2.3, read-out: log P(pH=2.3)”, the chromatographic logP turned out to be 4.53.
For the compound `CC(Nc1c(-c2ccc(F)cc2Cl)c(Cl)nc2c(C=O)cnn12)C(C)(C)C` (stereo not drawn) [Example 542, 3-formyl-5-chloro-6-(2-chloro-4-fluorophenyl)-7-(3,3-dimethylbut-2-ylamino)pyrazolo[1,5-a]pyrimidine], the chromatographic logP (HPLC (gradient method), per EEC Directive 79/831 Annex V. A8, two values, one per atropisomer, read-out: log P (atropisomers)) was 4.47.
For `CC1CCN(c2c(-c3ccc(F)cc3Cl)c(Cl)nc3c(C#N)cnn23)CC1` [Example 543, 3-cyano-5-chloro-6-(2-chloro-4-fluorophenyl)-7-(4-methylpiperidino)pyrazolo[1,5-a]pyrimidine], the chromatographic logP (pH=2.3, read-out: log P(pH=2.3)) is 4.88.

Values taken from patent US20070197540A1, “Pyrazolopyrimidines” (priority 2003, published 2007).
